{
  "source": "patent US11572590B2",
  "about": "“Methods for evaluating tumor cell spheroids using 3D microfluidic cell culture device” (Dana-Farber Cancer Institute, Inc., priority 2017, dated 2023)",
  "biological_target": "T1, off-target kinases (Homo sapiens, UniProt Q8WXR4)",
  "T1 sequence (Q8WXR4 1-1341)": "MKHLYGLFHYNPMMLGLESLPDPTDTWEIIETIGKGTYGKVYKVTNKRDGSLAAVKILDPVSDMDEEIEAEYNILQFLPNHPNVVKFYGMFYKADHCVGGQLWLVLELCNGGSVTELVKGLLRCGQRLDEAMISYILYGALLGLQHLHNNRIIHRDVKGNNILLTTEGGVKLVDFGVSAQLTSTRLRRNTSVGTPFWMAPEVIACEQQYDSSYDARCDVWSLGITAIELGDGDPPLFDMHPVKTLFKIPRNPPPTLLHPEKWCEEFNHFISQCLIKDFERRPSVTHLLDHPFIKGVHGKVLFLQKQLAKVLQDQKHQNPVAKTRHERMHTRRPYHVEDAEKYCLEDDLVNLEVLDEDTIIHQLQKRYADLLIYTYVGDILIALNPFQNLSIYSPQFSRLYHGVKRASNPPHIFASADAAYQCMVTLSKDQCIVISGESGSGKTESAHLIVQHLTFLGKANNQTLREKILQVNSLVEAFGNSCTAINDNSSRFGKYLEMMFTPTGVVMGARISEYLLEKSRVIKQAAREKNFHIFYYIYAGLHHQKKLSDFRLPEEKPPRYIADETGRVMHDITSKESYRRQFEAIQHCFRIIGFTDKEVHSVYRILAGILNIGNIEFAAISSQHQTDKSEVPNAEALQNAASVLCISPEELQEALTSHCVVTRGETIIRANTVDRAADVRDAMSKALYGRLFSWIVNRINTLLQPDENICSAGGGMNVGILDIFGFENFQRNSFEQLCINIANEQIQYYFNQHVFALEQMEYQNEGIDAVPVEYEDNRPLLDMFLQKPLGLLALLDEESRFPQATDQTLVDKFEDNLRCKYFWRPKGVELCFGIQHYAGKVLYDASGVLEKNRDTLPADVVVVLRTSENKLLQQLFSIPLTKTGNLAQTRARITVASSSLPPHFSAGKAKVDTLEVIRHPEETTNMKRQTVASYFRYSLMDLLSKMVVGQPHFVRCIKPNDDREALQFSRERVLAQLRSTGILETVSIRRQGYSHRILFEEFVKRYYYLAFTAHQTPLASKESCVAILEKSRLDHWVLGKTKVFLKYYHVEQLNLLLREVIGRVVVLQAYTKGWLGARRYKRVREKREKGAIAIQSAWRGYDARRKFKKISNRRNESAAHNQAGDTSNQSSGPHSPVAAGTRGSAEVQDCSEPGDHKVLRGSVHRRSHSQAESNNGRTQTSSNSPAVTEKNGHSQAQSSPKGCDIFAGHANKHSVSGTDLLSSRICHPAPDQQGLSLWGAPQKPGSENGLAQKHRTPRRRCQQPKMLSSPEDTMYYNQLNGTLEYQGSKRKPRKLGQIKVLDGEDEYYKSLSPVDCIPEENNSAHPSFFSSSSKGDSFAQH",
  "experiment": "SelectScreen Kinase Profiling, single point inhibition and IC50 for off-target kinases",
  "type": "biochemical",
  "conditions": "MYO3B (MYO3 beta), LanthaScreen Binding",
  "note": "Where two headings read alike, the source gives them in different places.",
  "data": [
    {"smiles": "N#Cc1cc(-c2ncnc(Nc3ccc(N4CCN(C5COC5)CC4)cc3)n2)ccc1OC1CCOCC1", "note": "[Compound 1, 5-(4-((4-(4-(oxetan-3-yl)piperazin-1-yl)phenyl)amino)-1,3,5-triazin-2-yl)-2-((tetrahydro-2H-pyran-4-yl)oxy)benzonitrile]", "values": [
      {"measurement": "inhibition", "setting": "read-out: % Inhibition 1", "result": 17, "unit": "%"},
      {"measurement": "inhibition", "setting": "read-out: % Inhibition 2", "result": 20, "unit": "%"},
      {"measurement": "inhibition", "setting": "read-out: % Inhibition Avg", "result": 18, "unit": "%"}
    ]}
  ]
}
